Results on one compound are retold here after article PMC7549094 (Journal of Medicinal Chemistry, 2020).

Structures are written as SMILES.

The conditions of data set [1]: microsomal extraction ratio, 1 h incubation in microsomes.
A short description of data set [2]: metabolite profile in mouse hepatocytes. The data set is classed as in vitro ADME. Conditions: 10 μM of 1 for 4 h, UV 250 nm, normalized to largest peak.
The target of data set [3] is T1, hr Ad1 (Homo sapiens, UniProt P30542).
T1 sequence (P30542 1-326): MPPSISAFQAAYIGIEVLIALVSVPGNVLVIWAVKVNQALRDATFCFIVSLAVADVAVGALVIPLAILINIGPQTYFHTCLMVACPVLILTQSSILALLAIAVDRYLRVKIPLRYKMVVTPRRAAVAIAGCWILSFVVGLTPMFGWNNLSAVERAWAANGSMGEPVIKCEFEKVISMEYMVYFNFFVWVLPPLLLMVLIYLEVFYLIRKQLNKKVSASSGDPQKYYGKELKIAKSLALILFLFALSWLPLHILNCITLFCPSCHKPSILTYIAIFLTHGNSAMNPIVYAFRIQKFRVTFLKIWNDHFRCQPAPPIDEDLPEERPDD
Description: receptor profile (Table S4). It counts as binding.

The target in data set [4] is hr Ad2A (Homo sapiens, UniProt P29274). As to the kind of experiment: receptor profile (Table S4). The data set is classed as binding.
Data set [5] deals with T2, hr Al2A antag (Homo sapiens, UniProt P08913).
T2 sequence (P08913 1-465): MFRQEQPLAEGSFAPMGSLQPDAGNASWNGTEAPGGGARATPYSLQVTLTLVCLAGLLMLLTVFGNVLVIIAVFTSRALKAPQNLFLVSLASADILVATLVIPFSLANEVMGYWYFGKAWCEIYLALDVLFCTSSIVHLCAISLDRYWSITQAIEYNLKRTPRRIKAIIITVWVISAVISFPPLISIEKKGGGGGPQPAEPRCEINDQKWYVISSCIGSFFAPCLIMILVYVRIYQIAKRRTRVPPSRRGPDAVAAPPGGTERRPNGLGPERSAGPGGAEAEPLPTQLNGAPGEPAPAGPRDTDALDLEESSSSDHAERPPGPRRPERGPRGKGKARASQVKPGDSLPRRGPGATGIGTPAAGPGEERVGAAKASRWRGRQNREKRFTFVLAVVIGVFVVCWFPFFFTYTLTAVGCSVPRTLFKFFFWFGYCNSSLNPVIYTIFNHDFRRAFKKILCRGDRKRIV
Description: receptor profile (Table S4). The data set is classed as biochemical.

The target of data set [6] is T3, hr COX-2 (Homo sapiens, UniProt P35354).
T3 sequence (P35354 18-604): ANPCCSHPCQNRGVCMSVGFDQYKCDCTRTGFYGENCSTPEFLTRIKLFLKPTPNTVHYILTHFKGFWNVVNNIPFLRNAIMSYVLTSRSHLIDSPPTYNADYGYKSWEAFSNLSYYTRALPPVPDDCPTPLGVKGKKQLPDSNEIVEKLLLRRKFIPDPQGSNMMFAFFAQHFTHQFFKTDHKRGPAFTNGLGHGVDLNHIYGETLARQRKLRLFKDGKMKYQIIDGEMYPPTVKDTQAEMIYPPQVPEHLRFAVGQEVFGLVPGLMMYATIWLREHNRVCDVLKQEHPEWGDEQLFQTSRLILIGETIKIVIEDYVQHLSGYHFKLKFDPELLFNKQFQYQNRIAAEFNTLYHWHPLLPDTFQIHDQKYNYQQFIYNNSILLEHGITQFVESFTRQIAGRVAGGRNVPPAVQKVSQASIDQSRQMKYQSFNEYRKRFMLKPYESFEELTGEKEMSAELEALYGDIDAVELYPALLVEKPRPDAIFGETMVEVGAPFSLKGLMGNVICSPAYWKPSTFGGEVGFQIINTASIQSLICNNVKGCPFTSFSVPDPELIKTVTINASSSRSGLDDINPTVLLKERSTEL
Description: receptor profile (Table S4). It counts as biochemical.

In data set [7] the target is T4, hr MAOA (Homo sapiens, UniProt P21397).
T4 sequence (P21397 1-527): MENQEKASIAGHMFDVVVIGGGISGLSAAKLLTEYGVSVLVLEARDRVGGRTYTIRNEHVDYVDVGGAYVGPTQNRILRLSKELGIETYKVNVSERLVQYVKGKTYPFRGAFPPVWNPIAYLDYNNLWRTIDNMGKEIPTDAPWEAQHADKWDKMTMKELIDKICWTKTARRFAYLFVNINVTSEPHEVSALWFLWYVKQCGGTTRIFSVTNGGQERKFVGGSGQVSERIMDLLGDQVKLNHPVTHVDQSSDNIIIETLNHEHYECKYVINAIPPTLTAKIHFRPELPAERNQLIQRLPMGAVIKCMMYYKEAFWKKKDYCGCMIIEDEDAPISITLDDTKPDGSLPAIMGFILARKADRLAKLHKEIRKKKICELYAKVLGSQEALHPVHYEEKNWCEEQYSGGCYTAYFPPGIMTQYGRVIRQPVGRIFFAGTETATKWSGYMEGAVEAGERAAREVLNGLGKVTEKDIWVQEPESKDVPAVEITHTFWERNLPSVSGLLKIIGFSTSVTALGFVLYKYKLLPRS
Description: receptor profile (Table S4). It counts as biochemical.

Chain of hr Ad2A (P29274 whole entry): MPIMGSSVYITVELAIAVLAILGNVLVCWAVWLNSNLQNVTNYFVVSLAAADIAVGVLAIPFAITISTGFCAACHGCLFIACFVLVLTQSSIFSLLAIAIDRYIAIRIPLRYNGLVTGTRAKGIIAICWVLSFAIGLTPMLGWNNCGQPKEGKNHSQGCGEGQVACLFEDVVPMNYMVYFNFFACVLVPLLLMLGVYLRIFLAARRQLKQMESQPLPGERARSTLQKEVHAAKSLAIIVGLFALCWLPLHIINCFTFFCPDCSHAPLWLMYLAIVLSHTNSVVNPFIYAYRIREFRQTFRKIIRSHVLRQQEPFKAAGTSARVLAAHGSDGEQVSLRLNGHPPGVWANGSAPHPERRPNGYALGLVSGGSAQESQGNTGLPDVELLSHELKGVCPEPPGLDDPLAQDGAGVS

Consider `Cc1nc(C)c(C(=O)Nc2ccc(F)c(-c3nc4ncc(-c5ncccc5C)cn4n3)c2)o1` [compound 1, N-(4-Fluoro-3-(6-(3-methylpyridin-2-yl)-[1,2,4]triazolo[1,5-a]pyrimidin-2-yl)phenyl)-2,4-dimethyloxazole-5-carboxamide], for which, in data set [1], the ER mouse was less than 0.21. Further, the abundance mouse entry in data set [2] is on record as “+++ (+++ > 75%)”. Also, the EC50/IC50 in data set [3] (hr Ad1), in data set [4] (hr Ad2A), in data set [5] (hr Al2A antag), in data set [6] (hr COX-2) and in data set [7] (hr MAOA) was more than 30 µM each time. Also, the inhibition at 10 µM was found to be 10% in data set [3] (read-out: % inh/act @ 10 µM); 26% in data set [4] (read-out: % inh/act @ 10 µM); 20% in data set [5] (read-out: % inh/act @ 10 µM); 9% in data set [6] (read-out: % inh/act @ 10 µM); 4% in data set [7] (read-out: % inh/act @ 10 µM). For the same compound, the inhibition at 30 µM in data set [3] (read-out: % inh/act @ 30 µM) stood at 27%; in data set [4] (read-out: % inh/act @ 30 µM) it was 52%; in data set [5] (read-out: % inh/act @ 30 µM) it was 22%; in data set [6] (read-out: % inh/act @ 30 µM), 13%; in data set [7] (read-out: % inh/act @ 30 µM), 12%.
